Columns and labels:
Huh-7 cell line = assay: Cellular triglyceride synthesis inhibition; type: cell-based; details: Homo sapiens, dyeing method
Text: FIG. 3. The dose-dependent inhibition activity of entacapone on triglyceride synthesis in Huh-7 cell line. The X-axis is the compound concentration. The Y-axis is “read-out” of the triglyceride concentration using dyeing method.

FTO protein = FTO protein (Homo sapiens, UniProt Q9C0B1); assay: FTO demethylation assay (enzymatic inhibition); type: biochemical; details: substrate 0.5 μM, enzyme 0.1 μM; ssDNA with N6-mA; HPLC-MS/MS; read-out: IC50 against FTO
Chain of FTO protein (Q9C0B1 whole entry): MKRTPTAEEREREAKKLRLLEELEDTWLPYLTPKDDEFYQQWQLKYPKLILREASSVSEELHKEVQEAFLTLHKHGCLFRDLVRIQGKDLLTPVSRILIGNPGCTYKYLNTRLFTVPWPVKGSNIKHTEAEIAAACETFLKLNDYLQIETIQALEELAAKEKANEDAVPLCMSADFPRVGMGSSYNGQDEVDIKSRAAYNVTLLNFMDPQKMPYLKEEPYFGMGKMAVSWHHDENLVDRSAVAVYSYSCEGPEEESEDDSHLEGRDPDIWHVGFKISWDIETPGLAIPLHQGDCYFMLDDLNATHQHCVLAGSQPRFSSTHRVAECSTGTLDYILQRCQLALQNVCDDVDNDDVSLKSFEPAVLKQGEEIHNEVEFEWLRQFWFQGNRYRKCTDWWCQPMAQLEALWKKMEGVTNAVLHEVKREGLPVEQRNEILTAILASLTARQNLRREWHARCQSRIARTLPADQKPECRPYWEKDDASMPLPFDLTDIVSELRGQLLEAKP
Protocol: We measured the compound's inhibition activity in the demethylation reaction catalyzed by FTO. The assay was performed in 100 μl of reaction system containing 50 mM HEPES buffer (pH=7.0), 100 μM of a-KG, 100 μM of (NH4)2Fe(SO4)2, 1 mM of L-ascorbic acid, 50 ng/ml of BSA, 0.5 μM of ssDNA with N^6-mA (5′-ATTGTCA(m^6A)CAGCAGA-3′), and 0.1 μM of FTO protein. The reaction system was incubated at 37° C. for 2 h and stopped by heating at 95° C. for […] ssDNA was digested by nuclease P1 and alkaline phosphatase. The concentrations of N^6-mA and A were analyzed by HPLC-MS/MS. When concentration of substrate and enzyme are 0.5 μM and 0.1 μM, respectively, the measured IC50 value of entacapone against FTO is ˜9 μM (FIG. 2).

[1] = test system: Ldlr−/− mice fed western style diet; assay: Atherosclerosis model: Ldlr-deficient mice; type: in vivo, mouse; details: 300 mg/kg orally blended with diet, after 8 weeks; Oil red O staining; p-value=0.08
Protocol: Atherosclerosis Model: Ldlr-Deficient Mice. We measured entacapone's anti-atherosclerosis efficacy using Ldlr^−/− mice fed western style diet (20% fat, 0.15% cholesterol), entacapone (300 mg/kg) was orally administered by blending with diet. After 8 weeks, the mean lesion area in aortic sinuses of drug treatment group was 28% less than that of control group (p-value=0.08) (FIG. 8). Therefore, entacapone reduces atherosclerosis symptom, comparing with the control.

[2] = test system: obese male C57BL/6 mice fed with high-fat diet; assay: In vivo anti-obesity efficacy in obese mice; design: species or system mouse; details: 300 mg/kg orally blended with diet, after 13 weeks; p<0.05
Protocol: Male C57BL/6 mice were fed with high-fat diet (45% fat, OpenSource Diets D12451) for 8 weeks. Then obese mice with body weight 20% larger than that of mice fed with normal diet (20 mice) were selected for experiments. Entacapone (300 mg/kg) was orally administered to 10 randomly selected obese mice by blending with diet. After 13 weeks, the mean body weight gain of drug treatment group was about 11% less than that of control group (*p-value<0.05) (FIG. 9).

[3] = test system: male wistar rats fed with high-fat diet; assay: In vivo anti-obesity efficacy in rats fed high-fat diet; design: species or system rat; details: 85.6 mg/day by gavage
Protocol: Total of 23 male wistar rats (6 weeks) were fed with high-fat diet (45% fat, OpenSource Diets D12451), and entacapone (85.6 mg/day) was administered to 12 randomly selected rats by gavage. After 8 weeks, the mean body weight of drug treatment group was about 11% less than that of control group (*p-value<0.05) (FIG. 4).

SMILES: CCN(CC)C(=O)/C(C#N)=C/c1cc(O)c(O)c([N+](=O)[O-])c1 [entacapone, (2E)-2-cyano-3-(3,4-dihydroxy-5-nitrophenyl)-N,N-diethylprop-2-enamide]
- IC50 (Huh-7 cell line): ~15 µM
- IC50 (FTO protein): ~9 µM
- mean lesion area in aortic sinuses less than that of control group [1]: 28%
- mean body weight gain less than that of control group [2]: about 11%
- mean body weight less than that of control group ([3]; after 8 weeks, high-fat diet, p<0.05): about 11%
- decrease of LDL-c in serum compared to control group ([3]; after 8 weeks, p<0.005): about 40%
- adipose tissue change vs control (H&E staining) ([3]; high-fat diet): reduced size of adipose cells
- body-weight-normalized food intake vs control group ([3]; high-fat diet): no difference
- hepatic tissue change vs control (H&E staining) ([3]; high-fat diet): reduced level of liver steatosis
- Difference in serum LDL-cholesterol (drug treatment vs control group) ([3]; rat serum, p-value 0.0005): −41.2%
- Difference in serum Creatine kinase (drug treatment vs control group) ([3]; rat serum, p-value 0.2311): −17.6%
- Difference in serum Glutamic-pyruvic transaminase (drug treatment vs control group) ([3]; rat serum, p-value 0.4962): −5.5%
- Difference in serum Bilirubin (drug treatment vs control group) ([3]; rat serum, p-value 0.5814): −10.1%
- Difference in serum Cholesterol (drug treatment vs control group) ([3]; rat serum, p-value 0.6455): −3.3%
- Difference in serum Triglyceride (drug treatment vs control group) ([3]; rat serum, p-value 0.8023): −3.8%
- Difference in serum Albumin ratio (drug treatment vs control group) ([3]; rat serum, p-value 0.9473): −0.063%
- Difference in serum HDL-cholesterol (drug treatment vs control group) ([3]; rat serum, p-value 0.9972): −0.026%

— US10004715B2, “Entacapone for prevention and treatment of atherosclerosis” (National Institute of Biological Sciences, Beijing, priority 2012, dated 2018)
